From patent US5733867A, “1, 5-benzodiazepine derivatives” (Glaxo Wellcome SpA, priority 1993, dated 1998)

Tests used:
[1] = target: CCK-A receptor; assay: CCK-receptor binding, CCK-A (Pancreas Assay)
Description: (§1) The greater affinity of the compounds of the invention for the CCK-B receptor over the CCK-A receptor has also been established using the CCK receptor binding assays described by G Dal Forno et al., J. Pharmcol. Exp & Ther. 261, 1056-1063, 1992.
(§2) The binding affinity of the compounds of the invention for the CCK-A receptor (Pancreas Assay) and CCK-B receptor (guinea pig cortex assay) was determined using the procedure of G Dal Forno et al J. Pharmacol. Exp & Ther. 261--1056-1063. The pKi values determined with respresentative compounds of invention were as follows: […]

[2] = target: T1, CCK-B receptor (Cavia porcellus, UniProt H0VZC5); assay: CCK-receptor binding, CCK-B (guinea pig cortex assay); details: read-out: pKi CCK-B (converted)
T1 construct: CCK-B receptor (guinea pig cortex assay); from tissue; host or cells: guinea pig cortex
T1 sequence (H0VZC5 1-426): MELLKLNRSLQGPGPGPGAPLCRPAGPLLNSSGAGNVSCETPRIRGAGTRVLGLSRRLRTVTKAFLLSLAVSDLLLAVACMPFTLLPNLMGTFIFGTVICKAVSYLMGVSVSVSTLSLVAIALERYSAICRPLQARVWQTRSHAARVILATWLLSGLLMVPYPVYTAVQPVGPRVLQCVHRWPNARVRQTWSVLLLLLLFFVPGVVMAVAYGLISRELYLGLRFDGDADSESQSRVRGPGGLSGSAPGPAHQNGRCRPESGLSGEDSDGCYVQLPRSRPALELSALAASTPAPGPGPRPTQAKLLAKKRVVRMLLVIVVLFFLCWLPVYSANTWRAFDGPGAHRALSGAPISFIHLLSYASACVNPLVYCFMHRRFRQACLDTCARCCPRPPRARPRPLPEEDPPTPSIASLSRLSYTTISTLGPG
Description: as §1, §2

| SMILES | pKi CCK-A [1] | Ki [2] [nM] |
| --- | --- | --- |
| O=CNc1cccc(NC(=O)NC2C(=O)N(CC34CC5CC(CC(C5)C3)C4)c3ccccc3N(c3ccccc3)C2=O)c1 (racemic) [Example 6, N-[1-(1-Adamantylmethyl)-2,4-dioxo-5-phenyl-2,3,4,5-tetrahydro-1H-1,5-benzodiazepin-3-yl]-N'-(3-formylaminophenyl)urea] | 5.95 | 0.955 |
| CC(=O)Nc1cccc(NC(=O)NC2C(=O)N(CC34CC5CC(CC(C5)C3)C4)c3ccccc3N(c3ccccc3)C2=O)c1 (racemic) [Example 7, N-[1-(1-Adamantylmethyl)-2,4-dioxo-5-phenyl-2,3,4,5-tetrahydro-1H-1,5-benzodiazepin-3-yl]-N'-(3-acetamidophenyl)urea] | 5.82 | 1.32 |
| O=C(Nc1cccc(CN2CCOCC2)c1)NC1C(=O)N(CC23CC4CC(CC(C4)C2)C3)c2ccccc2N(c2ccccc2)C1=O (single isomer, unassigned; (+)) [Example 1, (+)N-[1-(1-Adamantylmethyl)-2,4-dioxo-5-phenyl-2,3,4,5-tetrahydro-1H-1,5-benzodiazepin-3-yl]-N'-(3-(4-morpholinomethyl)phenyl]-urea] | 4.70 | – |
| CCOC(=O)CCCOc1ccc(NC(=O)NC2C(=O)N(CC34CC5CC(CC(C5)C3)C4)c3ccccc3N(c3ccccc3)C2=O)cc1 (single isomer, unassigned; (+)) [Example 2, (+)N-[1-(1-Adamantylmethyl)-2,4-dioxo-5-phenyl-2,3,4,5-tetrahydro-1H-1,5-benzodiazepin-3yl]-N'-[4-(3-(ethoxycarbonyl)propyl-1-oxo)phenyl]urea] | < 5.0 | 5.25 |
| O=C(O)CCCOc1ccc(NC(=O)NC2C(=O)N(CC34CC5CC(CC(C5)C3)C4)c3ccccc3N(c3ccccc3)C2=O)cc1 (single isomer, unassigned; (+)) [Example 3, (+)N-[1-(1-Adamantylmethyl)-2,4-dioxo-5-phenyl-2,3,4,5-tetrahydro-1H-1,5benzodiazepin-3-yl]-N'-[4-(4-oxobutanoic acid)phenyl]urea] | < 5.0 | 3.8 |
| O=C(Nc1cccc(C(=O)OCCN2CCOCC2)c1)NC1C(=O)N(CC23CC4CC(CC(C4)C2)C3)c2ccccc2N(c2ccccc2)C1=O (single isomer, unassigned; (+)) [Example 4, (+)N-[1-(1-Adamantylmethyl)-2,4-dioxo-5-phenyl-2,3,4,5-tetrahydro-1H-5-benzodiazepin-3-yl]-N'-[3-[2-(4-Morpholino)ethoxycarbonyl]phenyl]urea] | 6.47 | 0.562 |
| O=C(Nc1cccc(NCC(O)CO)c1)NC1C(=O)N(CC23CC4CC(CC(C4)C2)C3)c2ccccc2N(c2ccccc2)C1=O (single isomer, unassigned; (+)) [Example 5, (+)N-[1-(1-Adamantylmethyl)-2,4-dioxo-5-phenyl-2,3,4,5-tetrahydro-1H-1,5-benzodiazepin-3-yl]N'-[3-(2,3-dihydroxypropylamino)phenyl]urea] | 5.13 | 0.676 |
